PubChem BioAssay AID192 (DTP/NCI, 2004)
“And” between values parts separate entries of the source, which are not always exact repeats. Identical values can stand only once. Toxic doses and inconclusive results are not listed.

Tested on: BDF1 mice, B16 melanoma ip, median survival T/C
Assay: NCI In Vivo Anticancer Drug Screen. Data for tumor model B16 Melanoma (intraperitoneal) in B6D2F1 (BDF1) mice
Conditions: endpoint: median survival time, higher = longer survival
In short: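 Each result divides a survival or tumor-size measurement in the compound-treated group by the same measurement in the vehicle group.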

[1] = dose: 12.5 mg/kg/injection, schedule: Q01DX009 (ip), vehicle: saline
[2] = dose: 25.0 mg/kg/injection, schedule: Q01DX009 (ip), vehicle: saline with Tween-80
[3] = dose: 25.0 mg/kg/injection, schedule: Q01DX009 (ip), vehicle: saline
[4] = dose: 50.0 mg/kg/injection, schedule: Q01DX009 (ip), vehicle: saline
[5] = dose: 100.0 mg/kg/injection, schedule: Q01DX009 (ip), vehicle: saline
[6] = dose: 12.5 mg/kg/injection, schedule: Q01DX009 (ip), vehicle: Klucel (hydroxypropylcellulose) (HPC)
[7] = dose: 25.0 mg/kg/injection, schedule: Q01DX009 (ip), vehicle: Klucel (hydroxypropylcellulose) (HPC)
[8] = dose: 100.0 mg/kg/injection, schedule: Q01DX009 (ip), vehicle: Klucel (hydroxypropylcellulose) (HPC)
[9] = dose: 6.25 mg/kg/injection, schedule: Q01DX009 (ip), vehicle: saline
[10] = dose: 12.5 mg/kg/injection, schedule: Q04DX003 (ip), vehicle: saline with Tween-80
[11] = dose: 200.0 mg/kg/injection, schedule: Q01DX009 (ip), vehicle: Klucel (hydroxypropylcellulose) (HPC)
[12] = dose: 400.0 mg/kg/injection, schedule: Q01DX009 (ip), vehicle: Klucel (hydroxypropylcellulose) (HPC)

Which T/C (dose: 12.5 mg/kg/injection, schedule: Q01DX009 (ip), vehicle: saline with Tween-80) does the source give for ClCC[N+]12CC[N+](CCCl)(CC1)C2 here?
The T/C was 95 % of control and 100 % of control.

What about the T/C [1] of the same compound?
Its T/C is 112 % of control and 95 % of control.

And the T/C [2]?
The T/C was 104 % of control.

What about the T/C [3] of the same compound?
The T/C was 109 % of control and 105 % of control.

What about the T/C (dose: 50.0 mg/kg/injection, schedule: Q01DX009 (ip), vehicle: saline with Tween-80) of the same compound?
The T/C was 110 % of control and 116 % of control.

And the T/C [4]?
The T/C was 124 % of control and 101 % of control.

And the T/C [5]?
Its T/C is 101 % of control.

And the T/C (dose: 200.0 mg/kg/injection, schedule: Q01DX009 (ip), vehicle: saline)?
Its T/C is 100 % of control.

And the T/C (dose: 400.0 mg/kg/injection, schedule: Q01DX009 (ip), vehicle: saline)?
The T/C was 107 % of control.

What does the source list for COc1ccc2[nH]c3ccc4cc[n+](CCN5CCC(C6CCN(CC[n+]7ccc8ccc9[nH]c%10ccc(OC)cc%10c9c8c7)CC6)CC5)cc4c3c2c1?
T/C [6]: 150 % of control; T/C [7]: 194 % of control; T/C (dose: 50.0 mg/kg/injection, schedule: Q01DX009 (ip), vehicle: Klucel (hydroxypropylcellulose) (HPC)): 180 % of control; T/C [8]: 100 % of control

Which results are given for C[N+](C)(C)c1ncnc2c1ncn2C1CCCO1 (stereo not drawn)?
T/C [9]: 111 % of control; T/C [1]: 105 % of control; T/C [3]: 108 % of control; T/C [4]: 111 % of control; T/C [5]: 117 % of control

What does the source list for O=C1C(=O)c2ccccc2C(O)=C1CCCc1ccc(C2CCCCC2)cc1?
T/C [2]: 104 % of control; T/C (dose: 200.0 mg/kg/injection, schedule: Q01DX009 (ip), vehicle: saline with Tween-80): 88 % of control

CC(C)(C)NC/C(=C\c1ccccc1)C(=O)c1ccccc1 was tested. Which T/C (dose: 6.25 mg/kg/injection, schedule: Q04DX003 (ip), vehicle: saline with Tween-80) did it give?
Its T/C is 100 % of control.

What about the T/C [6] of the same compound?
The T/C was 96 % of control.

And the T/C [10]?
The T/C was 98 % of control.

And the T/C [7]?
The T/C was 96 % of control.

And the T/C (dose: 25.0 mg/kg/injection, schedule: Q04DX003 (ip), vehicle: saline with Tween-80)?
The T/C was 97 % of control and 102 % of control.

With O=S(=O)(F)c1cc(C[P+](c2ccccc2)(c2ccccc2)c2ccccc2)ccc1Cl as the compound, how does the T/C (dose: 0.1 mg/kg/injection, schedule: Q01DX009 (ip), vehicle: saline with Tween-80) read?
Its T/C is 105 % of control.

What about the T/C (dose: 0.1 mg/kg/injection, schedule: Q04DX003 (ip), vehicle: saline with Tween-80) of the same compound?
Its T/C is 112 % of control.

And the T/C (dose: 0.2 mg/kg/injection, schedule: Q01DX009 (ip), vehicle: saline with Tween-80)?
Its T/C is 90 % of control.

What about the T/C (dose: 0.2 mg/kg/injection, schedule: Q04DX003 (ip), vehicle: saline with Tween-80) of the same compound?
The T/C was 110 % of control.

And the T/C (dose: 0.4 mg/kg/injection, schedule: Q01DX009 (ip), vehicle: saline with Tween-80)?
The T/C was 100 % of control.

What about the T/C (dose: 0.4 mg/kg/injection, schedule: Q04DX003 (ip), vehicle: saline with Tween-80) of the same compound?
Its T/C is 110 % of control.

And the T/C (dose: 3.0 mg/kg/injection, schedule: Q04DX003 (ip), vehicle: saline with Tween-80)?
The T/C was 86 % of control.

What about the T/C [10] of the same compound?
The T/C was 86 % of control.

Which T/C (dose: 0.75 mg/kg/injection, schedule: Q01DX009 (ip), vehicle: Klucel (hydroxypropylcellulose) (HPC)) does the source give for CCCCCC[N+](CCCCCC)(CCCCCC)CCCCCC here?
The T/C was 88 % of control.

And the T/C (dose: 1.5 mg/kg/injection, schedule: Q01DX009 (ip), vehicle: Klucel (hydroxypropylcellulose) (HPC))?
Its T/C is 90 % of control.

With Oc1ccc(/C=N/NC(=S)NN2CCOCC2)nc1 as the compound, how does the T/C (dose: 3.12 mg/kg/injection, schedule: Q01DX009 (ip), vehicle: Klucel (hydroxypropylcellulose) (HPC)) read?
The T/C was 104 % of control.

And the T/C (dose: 6.25 mg/kg/injection, schedule: Q01DX009 (ip), vehicle: Klucel (hydroxypropylcellulose) (HPC))?
The T/C was 103 % of control.

And the T/C [6]?
Its T/C is 104 % of control.

What about the T/C [7] of the same compound?
Its T/C is 108 % of control.

What does the source list for CCCCCCCC(O)CCCC (stereo not drawn)?
T/C [8]: 92 % of control; T/C [11]: 98 % of control; T/C [12]: 86 % of control

C=C(C)C(=O)OC1CCC2(C)C(CCC3C2CCC2(C)C(c4ccc(=O)oc4)CC4OC432)C1 (stereo not drawn) was tested. Which T/C (dose: 1.25 mg/kg/injection, schedule: Q01DX009 (ip), vehicle: saline with Tween-80) did it give?
The T/C was 100 % of control.

And the T/C (dose: 2.5 mg/kg/injection, schedule: Q01DX009 (ip), vehicle: saline with Tween-80)?
The T/C was 94 % of control.

What about the T/C (dose: 5.0 mg/kg/injection, schedule: Q01DX009 (ip), vehicle: saline with Tween-80) of the same compound?
Its T/C is 96 % of control.

What about the T/C (dose: 10.0 mg/kg/injection, schedule: Q01DX009 (ip), vehicle: saline with Tween-80) of the same compound?
The T/C was 107 % of control.

And the T/C (dose: 20.0 mg/kg/injection, schedule: Q01DX009 (ip), vehicle: saline with Tween-80)?
Its T/C is 102 % of control.

How did the T/C (dose: 1.56 mg/kg/injection, schedule: Q01DX009 (ip), vehicle: saline) turn out when CCCCCCCCCCCCCCCC[N+]1(C)CCN(SN2CC[N+](C)(CCCCCCCCCCCCCCCC)CC2)CC1 was run?
The T/C was 93 % of control.

What about the T/C (dose: 3.12 mg/kg/injection, schedule: Q01DX009 (ip), vehicle: saline) of the same compound?
The T/C was 89 % of control.

What about the T/C [9] of the same compound?
The T/C was 87 % of control and 89 % of control.

How did the T/C [8] turn out when O=C(CC(CC(=O)c1ccccc1)c1ccco1)c1ccccc1 was run?
Its T/C is 93 % of control.

And the T/C [11]?
Its T/C is 93 % of control.

And the T/C [12]?
Its T/C is 93 % of control.
